Here are results for seven compounds from the supplement of paper PMC11061612.

Assay in all cases: Bliss excess, mean over the matrix (fraction); higher = more synergy
The subject of experiment [1] is 639-V (Bladder Carcinoma). Put shortly: (§1)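 Bliss excess equals the observed combination effect minus the expected value EA + EB − EA·EB, where EA and EB are the effects of each agent alone. Combination Emax is the second-highest inhibition within the matrix. Inhibition was scaled from CellTiter-Glo 2.0 luminescence, with 0 set by vehicle wells and 1 by blank wells, after 72 hours of two-drug dosing of cells plated in 1536-well plates.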

Experiment [2] concerns CTB-1 (B-Cell Non-Hodgkin's Lymphoma). Put shortly:
as §1

The test system of experiment [3] is EN (Endometrial Carcinoma). Put shortly: as §1
For experiment [4], the system named is HCC-15 (Squamous Cell Lung Carcinoma). Put shortly: as §1
Experiment [5] has as its system KYSE-410 (Esophageal Squamous Cell Carcinoma). In short, it runs like this:
as §1

Experiment [6] deals with LB771-HNC (Head and Neck Carcinoma). Put shortly:
as §1

Experiment [7] relates to LU-139 (Small Cell Lung Carcinoma). In short, it runs like this: as §1
In experiment [8] the test system is LoVo (Colorectal Carcinoma). Put shortly:
as §1

Experiment [9] deals with MHH-PREB-1 (B-Cell Non-Hodgkin's Lymphoma). In short, it runs like this: as §1
The subject of another experiment is NB14 (Neuroblastoma). In short, it runs like this: as §1
The next experiment relates to NCI-H2795 (Mesothelioma). In short, it runs like this: as §1
The next experiment concerns NCI-H28 (Mesothelioma). In short, it runs like this:
as §1

The test system of experiment [10] is NCI-H747 (Colorectal Carcinoma). In short, it runs like this:
as §1

Experiment [11] relates to OC-314 (Ovarian Carcinoma). In short, it runs like this: as §1
The test system of experiment [12] is RKO (Colorectal Carcinoma). In short, it runs like this: as §1
Another experiment deals with SH-4 (Melanoma). Put shortly: as §1
In experiment [13] the test system is SW1271 (Small Cell Lung Carcinoma). In short, it runs like this: as §1
Experiment [14] relates to SW626 (Colorectal Carcinoma). In short, it runs like this:
as §1

In experiment [15] the test system is TE-4 (Esophageal Squamous Cell Carcinoma). In short, it runs like this: as §1
Experiment [16] relates to UMC-11 (Other Solid Carcinomas). Put shortly:
as §1

`CCN(CCO)CCCOc1ccc2c(Nc3cc(CC(=O)Nc4cccc(F)c4)[nH]n3)ncnc2c1` [AZD2811] + O=C(c1cc(Cc2n[nH]c(=O)c3ccccc23)ccc1F)N1CCN(C(=O)C2CC2)CC1 [Olaparib] (first compound max 1 µM, 7x7, partner max 10 µM): the Bliss excess in experiment [1] is 0.0445; in [2], -0.0508; in experiment [3], -0.0657; in experiment [4] it was -0.0123; in experiment [5] it was -0.0308; in [6] it was 0.0255. Moreover, the Bliss excess is -0.0495 in experiment [7]; -0.0452 in experiment [8]; 0.0032 in [9]; -0.0384 with NB14 (Neuroblastoma); 0.052 with NCI-H2795 (Mesothelioma); -0.0383 with NCI-H28 (Mesothelioma). Moreover, the Bliss excess in experiment [10] was 0.03; in experiment [11], 0.0254; in experiment [12] it was 0.0655; with SH-4 (Melanoma), -0.0234; in experiment [13], -0.0312; in experiment [14], -0.0134. The values for the Bliss excess in [15] and in [16] were 0.0049 and -0.0715, respectively.

On to `CC1(C)CCC(CN2CCN(c3ccc(C(=O)NS(=O)(=O)c4ccc(NCC5CCOCC5)c([N+](=O)[O-])c4)c(Oc4cnc5[nH]ccc5c4)c3)CC2)=C(c2ccc(Cl)cc2)C1` [Venetoclax] + COc1cc(Nc2ncc3c(n2)-c2ccc(Cl)cc2C(c2c(F)cccc2OC)=NC3)ccc1C(=O)O [Alisertib] (first compound max 1 µM, 7x7, partner max 10 µM), for which the Bliss excess is 0.0173 in experiment [1]; -0.0467 in experiment [2]; -0.0554 in experiment [3]; -0.0104 in [4]; -0.0651 in [5]; -0.0185 in [6]. The Bliss excess is 0.149 in [7]; -0.0799 in [8]; -0.03 in [9]; 0.0448 in the experiment with NB14 (Neuroblastoma); -0.0656 in the experiment on NCI-H2795 (Mesothelioma); -0.0704 with NCI-H28 (Mesothelioma). In addition, the Bliss excess was 0.0071 in experiment [10]; 0.0244 in experiment [11]; -0.0062 in [12]; -0.0234 in the experiment on SH-4 (Melanoma); -0.0222 in experiment [13]; -0.0167 in [14]. Moreover, the Bliss excess in [15] was -0.034; in experiment [16], 0.192.

For the compound `CC1(C)CCC(CN2CCN(c3ccc(C(=O)NS(=O)(=O)c4ccc(NCC5CCOCC5)c([N+](=O)[O-])c4)c(Oc4cnc5[nH]ccc5c4)c3)CC2)=C(c2ccc(Cl)cc2)C1` [Venetoclax] + C=CCn1c(=O)c2cnc(Nc3ccc(N4CCN(C)CC4)cc3)nc2n1-c1cccc(C(C)(C)O)n1 [AZD1775] (first compound max 1 µM, partner max 1 µM), the Bliss excess was -0.0322 in [1]; -0.0812 in experiment [2]; 0.0619 in experiment [3]; -0.0355 in experiment [4]; -0.0451 in [5]; 0.0127 in [6]. Besides, the Bliss excess was 0.0207 in experiment [7]; -0.0625 in experiment [8]; -0.0328 in [9]; 0.0967 in the experiment on NB14 (Neuroblastoma); 0.0657 in the experiment with NCI-H2795 (Mesothelioma); -0.048 in the experiment on NCI-H28 (Mesothelioma). Moreover, the Bliss excess in experiment [10] is -0.0656; in [11], 0.1; in experiment [12] it was 0.0487; in the experiment with SH-4 (Melanoma) it was 0.0107; in experiment [13], 0.0381; in experiment [14] it was -0.0676. Moreover, the Bliss excess in experiment [15] is -0.0529; in experiment [16], -0.0679.

Regarding `CCc1c2c(nc3ccc(O)cc13)-c1cc3c(c(=O)n1C2)COC(=O)[C@]3(O)CC` [SN-38] + CN(C)CCCOc1ccc(-c2ccc3ncc4c(c3c2)n(C2CCOCC2)c(=O)n4C)cn1 [AZD0156] (first compound max 0.3 µM, 7x7, partner max 1 µM), the Bliss excess in experiment [1] was 0.068; in experiment [2] it was -0.0393; in experiment [3], -0.0346; in experiment [4], 0.16; in [5], -0.0542; in [6] it was -0.031. Also, the Bliss excess was -0.118 in experiment [7]; 0.0135 in experiment [8]; 0.0408 in experiment [9]; 0.0191 with NB14 (Neuroblastoma); 0.0334 in the experiment with NCI-H2795 (Mesothelioma); -0.0839 in the experiment on NCI-H28 (Mesothelioma). Also, the Bliss excess in [10] was 0.0019; in experiment [11], 0.0872; in experiment [12] it was 0.0263; in the experiment on SH-4 (Melanoma), -0.0552; in experiment [13], 0.0025; in experiment [14] it was -0.0379. The Bliss excess in experiment [15] came out at 0.0185; in [16] it was 0.0224.

As for `Cc1c2c(nn1C)CSCc1cc(n(C)n1)CSc1cc(c3ccccc3c1)OCCCc1c(C(=O)O)n(C)c3c-2c(Cl)ccc13` [AZD5991] + C[C@@H](Nc1cc(F)cc(F)c1)c1cc(C(=O)N(C)C)cc2c(=O)cc(N3CCOCC3)oc12 [AZD8186] (first compound max 1 µM, 7x7, partner max 3 µM), the Bliss excess in experiment [1] was 0.0519; in [2] it was -0.0135; in experiment [3], -0.109; in experiment [4], -0.0047; in experiment [5], -0.0639; in experiment [6] it was -0.0206. Further, the Bliss excess in experiment [7] is -0.0439; in experiment [8] it was 0.0005; in experiment [9], -0.0069; in the experiment on NB14 (Neuroblastoma), 0.0059; with NCI-H2795 (Mesothelioma), 0.0848; in the experiment with NCI-H28 (Mesothelioma), -0.0245. The Bliss excess was -0.0421 in experiment [10]; -0.0029 in experiment [11]; -0.0116 in experiment [12]; 0.0203 in the experiment on SH-4 (Melanoma); -0.0576 in experiment [13]; -0.0268 in [14]. Also, the Bliss excess in experiment [15] was 0.0492; in [16], -0.039.

On to `CN(CCO)CC[C@H](CSc1ccccc1)Nc1ccc(S(=O)(=O)NC(=O)c2ccc(N3CCC([C@@H](O)c4ccccc4-c4ccc(Cl)cc4)CC3)cc2)cc1S(=O)(=O)C(F)(F)F` [AZD4320] + CCN(CCO)CCCOc1ccc2c(Nc3cc(CC(=O)Nc4cccc(F)c4)[nH]n3)ncnc2c1 [AZD2811] (first compound max 1 µM, 7x7, partner max 1 µM), for which the Bliss excess in experiment [1] is 0.0502; in [2], -0.0596; in experiment [3] it was -0.0073; in experiment [4], -0.0091; in [5], -0.0437; in [6], -0.0227. The Bliss excess is 0.0775 in experiment [7]; -0.0278 in [8]; 0.0034 in [9]; 0 in the experiment with NB14 (Neuroblastoma); 0.0386 in the experiment with NCI-H2795 (Mesothelioma); -0.0045 with NCI-H28 (Mesothelioma). For the same compound, the Bliss excess is -0.0558 in [10]; 0.156 in experiment [11]; -0.0162 in experiment [12]; -0.0236 with SH-4 (Melanoma); -0.0428 in experiment [13]; 0.0278 in [14]. Also, the Bliss excess is -0.0186 in [15] and -0.0565 in [16].

On to `COc1cc2c(cc1OCCCCCOc1cc3c(cc1OC)C(=O)N1C=C(C)C[C@H]1C=N3)N=C[C@@H]1CC(C)=CN1C2=O` [SG3199] + O=C(c1cc(Cc2n[nH]c(=O)c3ccccc23)ccc1F)N1CCN(C(=O)C2CC2)CC1 [Olaparib] (first compound max 0.001 µM, 7x7, partner max 10 µM), for which the Bliss excess in [1] is -0.0289; in [2], -0.043; in experiment [3], -0.0456; in experiment [4], -0.0166; in experiment [5], -0.0334; in experiment [6] it was 0.0002. Moreover, the Bliss excess in experiment [7] is -0.0196; in experiment [8] it was -0.0455; in [9], -0.0025; in the experiment on NB14 (Neuroblastoma), -0.0283; with NCI-H2795 (Mesothelioma) it was -0.0524; in the experiment on NCI-H28 (Mesothelioma), -0.0556. Moreover, the Bliss excess is -0.0269 in experiment [10]; -0.036 in experiment [11]; -0.0131 in experiment [12]; -0.027 in the experiment with SH-4 (Melanoma); -0.0276 in experiment [13]; -0.0362 in experiment [14]. Besides, the values for the Bliss excess in experiment [15] and in [16] were -0.0319 and 0.0084, respectively.
